Measurements from ChEMBL document CHEMBL1133349, “Novel phenylpiperazine derivatives as dual cytokine regulators with TNF-alpha suppressing and IL-10 augmenting activity” (Bioorg Med Chem Lett, 2000).
pKi: −log10 of the molar value.

Tests used:
Mus musculus [1] = assay: Ability to inhibit TNF-alpha in LPS-stimulated mice after oral administration by ELISA assay; assay type: functional; set-up: concentration or dose not given beside the values
Mus musculus [2] = assay: Ability to augment IL-10 in LPS-stimulated mice after oral administration by ELISA assay; assay type: functional; set-up: concentration or dose not given beside the values
D(2) dopamine receptor = D(2) dopamine receptor (Bos taurus, UniProt P20288); assay: Binding affinity towards Dopamine receptor D2
[3] = molecular target: Serotonin 2 (5-HT2) receptor (Homo sapiens, UniProt P41595+P28223+P28335); assay: Binding affinity towards 5-hydroxytryptamine 2 receptor; assay type: protein assay
[4] = molecular target: T1, 5-hydroxytryptamine receptor 1A (Rattus norvegicus, UniProt P19327); assay: Binding affinity towards 5-hydroxytryptamine 1A receptor
T1 sequence (P19327 whole entry): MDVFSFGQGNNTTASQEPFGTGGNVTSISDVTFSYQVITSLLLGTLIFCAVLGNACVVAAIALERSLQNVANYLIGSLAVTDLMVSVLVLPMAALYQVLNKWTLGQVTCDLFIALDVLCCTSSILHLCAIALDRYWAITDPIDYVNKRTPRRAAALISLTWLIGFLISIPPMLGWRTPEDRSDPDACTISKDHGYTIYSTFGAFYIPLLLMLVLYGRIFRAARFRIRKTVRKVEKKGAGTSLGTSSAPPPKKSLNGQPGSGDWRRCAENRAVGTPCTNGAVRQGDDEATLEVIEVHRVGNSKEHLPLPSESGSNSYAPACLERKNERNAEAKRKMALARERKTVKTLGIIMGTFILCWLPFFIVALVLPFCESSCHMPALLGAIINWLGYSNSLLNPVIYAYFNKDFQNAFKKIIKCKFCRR

[5] = molecular target: T2, Adrenergic receptor alpha-1 (Rattus norvegicus, UniProt P15823+P23944+P43140); assay: Binding affinity towards Alpha-1 adrenergic receptor; assay type: protein assay
T2 sequence (P15823 whole entry): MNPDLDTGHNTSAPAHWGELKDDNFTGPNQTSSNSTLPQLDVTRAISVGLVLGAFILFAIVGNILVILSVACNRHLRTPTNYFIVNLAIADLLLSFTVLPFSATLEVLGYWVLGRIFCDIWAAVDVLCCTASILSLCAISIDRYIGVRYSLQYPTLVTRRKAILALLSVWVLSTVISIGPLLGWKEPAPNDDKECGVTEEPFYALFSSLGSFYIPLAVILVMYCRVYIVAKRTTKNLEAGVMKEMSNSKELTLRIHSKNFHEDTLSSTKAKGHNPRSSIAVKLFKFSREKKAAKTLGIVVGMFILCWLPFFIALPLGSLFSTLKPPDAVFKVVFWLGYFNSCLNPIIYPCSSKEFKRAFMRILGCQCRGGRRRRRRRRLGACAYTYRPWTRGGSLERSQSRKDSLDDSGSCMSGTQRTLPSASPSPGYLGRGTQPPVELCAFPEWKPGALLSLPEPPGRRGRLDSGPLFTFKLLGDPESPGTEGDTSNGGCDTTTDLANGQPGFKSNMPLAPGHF
T2 sequence (P23944 whole entry): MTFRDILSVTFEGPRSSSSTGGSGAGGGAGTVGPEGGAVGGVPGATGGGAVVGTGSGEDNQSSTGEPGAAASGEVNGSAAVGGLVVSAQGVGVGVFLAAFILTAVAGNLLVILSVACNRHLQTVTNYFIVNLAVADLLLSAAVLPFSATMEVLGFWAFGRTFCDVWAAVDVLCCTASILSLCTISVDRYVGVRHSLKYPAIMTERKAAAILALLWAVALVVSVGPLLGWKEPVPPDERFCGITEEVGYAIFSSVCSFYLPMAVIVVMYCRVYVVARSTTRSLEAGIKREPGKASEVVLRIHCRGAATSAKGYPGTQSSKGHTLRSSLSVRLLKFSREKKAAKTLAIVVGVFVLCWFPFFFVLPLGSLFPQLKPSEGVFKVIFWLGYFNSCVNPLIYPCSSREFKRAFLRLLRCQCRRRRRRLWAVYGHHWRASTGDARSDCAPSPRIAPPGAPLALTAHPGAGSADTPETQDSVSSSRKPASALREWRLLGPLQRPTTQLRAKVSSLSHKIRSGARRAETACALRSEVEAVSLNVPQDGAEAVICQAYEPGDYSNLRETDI
T2 sequence (P43140 whole entry): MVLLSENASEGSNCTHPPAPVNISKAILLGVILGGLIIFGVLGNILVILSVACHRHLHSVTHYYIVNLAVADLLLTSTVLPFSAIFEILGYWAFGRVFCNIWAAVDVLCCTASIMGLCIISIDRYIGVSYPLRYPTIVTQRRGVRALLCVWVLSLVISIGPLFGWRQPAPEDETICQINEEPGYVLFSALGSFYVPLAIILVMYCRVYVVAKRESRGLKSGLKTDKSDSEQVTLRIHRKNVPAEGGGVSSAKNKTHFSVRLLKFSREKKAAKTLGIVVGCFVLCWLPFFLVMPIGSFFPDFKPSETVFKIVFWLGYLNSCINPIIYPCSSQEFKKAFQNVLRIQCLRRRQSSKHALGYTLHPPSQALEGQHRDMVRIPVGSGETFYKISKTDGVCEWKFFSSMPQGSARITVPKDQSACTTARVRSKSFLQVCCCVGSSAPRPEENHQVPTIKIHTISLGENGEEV

[6] = Oral bioavailability at a dose of 30 mg/kg in rats; assay type: ADME, organism-based; conditions: rat, in vivo
Mus musculus [7] = species: Mus musculus; assay: Dose that prevented shock death in mice; assay type: functional
Mus musculus [8] = assay: Ability of compound to prevent shock death in mice expressed as no of mice that survived out of 10 at a dose of 10 mg/kg; assay type: functional

Chain of D(2) dopamine receptor (P20288 whole entry): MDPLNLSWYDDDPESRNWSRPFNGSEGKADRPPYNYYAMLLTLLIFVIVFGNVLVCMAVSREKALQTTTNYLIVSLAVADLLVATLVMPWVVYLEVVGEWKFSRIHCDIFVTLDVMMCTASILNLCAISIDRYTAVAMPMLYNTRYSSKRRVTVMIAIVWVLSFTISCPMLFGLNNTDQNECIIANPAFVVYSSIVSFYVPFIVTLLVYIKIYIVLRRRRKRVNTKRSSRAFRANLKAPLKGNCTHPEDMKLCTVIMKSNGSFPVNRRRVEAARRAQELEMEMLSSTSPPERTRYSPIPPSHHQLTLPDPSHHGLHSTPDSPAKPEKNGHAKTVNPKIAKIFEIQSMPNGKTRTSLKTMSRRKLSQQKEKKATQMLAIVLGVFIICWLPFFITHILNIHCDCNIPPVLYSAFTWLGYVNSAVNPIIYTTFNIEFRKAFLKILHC

pKi (D(2) dopamine receptor) | Ki [3] | pKi [4] | Ki [5] | Structure (SMILES) | Inhibition (Mus musculus [1]) | IL-10 level (% of control) (Mus musculus [2]) | bioavailability [6] | Dose (Mus musculus [7]) | Survival (Mus musculus [8])
< 6.00 | > 1000 nM | 6.85 | > 1000 nM | CC(=O)NCc1ccc(CN2CCN(c3ccccc3)CC2)cc1 | 89% | 376% | – | – | –
< 6.00 | > 1000 nM | < 6.00 | > 1000 nM | COc1ccc(N2CCN(Cc3ccc(CNC(C)=O)cc3)CC2)cc1 | 74% | 449% | – | – | –
8.26 | 37 nM | 8.42 | 7.9 nM | Nc1nc(-c2ccc(CCCCN3CCN(c4ccccc4)CC3)cc2)cs1 | 87% | 382% | – | – | –
< 6.00 | > 1000 nM | < 6.00 | > 1000 nM | CC(=O)NCc1ccc(CN2CCN(c3ccc(Cl)cc3)CC2)cc1 | 65% | 361% | – | – | –
6.47 | 160 nM | 7.48 | 6.4 nM | CC(=O)NCc1ccc(CCCN2CCN(c3ccccc3)CC2)cc1 | 97% | 1805% | – | – | –
6.77 | 130 nM | 8.54 | 69 nM | CC(=O)NCc1ccc(CCN2CCN(c3ccccc3)CC2)cc1 | 96% | 2784% | – | – | –

More lines, now with the values behind:

Structure (SMILES) | pKi (D(2) dopamine receptor) | Ki [3] | pKi [4] | Ki [5] | Inhibition (Mus musculus [1]) | IL-10 level (% of control) (Mus musculus [2]) | bioavailability [6] | Dose (Mus musculus [7]) | Survival (Mus musculus [8])
N/C(S)=N/Cc1ccc(CCCCN2CCN(c3ccccc3)CC2)cc1 | – | – | – | – | 69% | 129% | – | – | –
N=C(N)NCc1ccc(CCCCN2CCN(c3ccccc3)CC2)cc1 | – | – | – | – | 39% | 124% | – | – | –
CC(=O)NCc1ccc(CCCCN2CCN(c3ccccc3)CC2)cc1 | 7.31 | 48 nM | 8.22 | 4.6 nM | 94% | 1337% | – | – | –
CC(=O)NCCCc1ccc(CCCCN2CCN(c3ccccc3)CC2)cc1 | – | – | – | – | 68% | 146% | – | – | –
CC(=O)NCc1ccc(CN2CCN(c3ccc(F)cc3)CC2)cc1 | < 6.00 | > 1000 nM | < 6.00 | > 1000 nM | 87% | 1494% | – | – | –
NC(=O)NCc1ccc(CCCCN2CCN(c3ccccc3)CC2)cc1 | – | – | – | – | 85% | 253% | – | – | –
CC(=O)NCCc1ccc(CCCCN2CCN(c3ccccc3)CC2)cc1 | – | – | – | – | 76% | 292% | – | – | –
CC(=O)Nc1ccc(CCCCN2CCN(c3ccccc3)CC2)cc1 | – | – | – | – | 88% | 585% | – | – | –
CC(=O)NCc1ccc(CN2CCN(c3ccc(F)cc3F)CC2)cc1 | < 6.00 | > 1000 nM | – | > 1000 nM | 91% | 2293% | 95.5% | 10 mg/kg | 8
c1ccc(CCCCN2CCN(c3ccccc3)CC2)cc1 | – | – | – | – | 77% | 337% | – | – | –
